From PubChem BioAssay AID2742 (NMMLSC, 2010)
Activity calls are given as the source filed them.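 How the source made its calls: active means fitted half-maximal concentration for changing background-corrected GFP signal at or below a set limit; inactive means the rest.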

Tested on: S. cerevisiae MEP2-GFP strain, flow cytometry fluorescence, 3 h
Assay: TOR pathway reporter MEP2-GFP, concentration series – S. cerevisiae, flow cytometry GFP, MLPCN hits, dose response (AID 2742);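 on EC50: curve fit on GFP signal minus compound signal in parental s288c strain lacking GFP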;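 on GFP fluorescence (kMESF), higher = increase: GFP tag reports level of MEP2 protein as a downstream target of TOR signalling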
Details: not given

| SMILES | EC50 |
| --- | --- |
| CCOC(=O)COc1ccc2ccccc2c1/C=C/[N+](=O)[O-] | 12700 nM |
| CCCCCCCCn1sccc1=O | 1230 nM |
| O=C1NC(=O)C(=Cc2ccc(-c3ccc(Cl)cc3)o2)C(=O)N1 | 1380 nM |
| Cc1ccc(/C=C/C(=O)c2ccccc(=O)c2O)c(C)c1 | 13700 nM |
| CC1(C)C[C@H]2C=C(C=O)[C@]3(C=O)C[C@]3(C)[C@H]2C1 | 1260 nM |
| Nc1ccc(Br)c2c1C(=O)c1ccccc1C2=O | 1040 nM |
| CNc1nc(N)c([N+](=O)[O-])c(Nc2cccc(F)c2)n1 | 6850 nM |
| O=C1NC(=O)N(Cc2ccc(F)cc2)C(=O)/C1=C/c1cccs1 | 3010 nM |
| CNC(CC(=O)c1ccc([N+](=O)[O-])cc1)C(Cl)(Cl)Cl (stereo not drawn) | 2280 nM |
| O=C(Oc1ccnc2cc(Cl)ccc12)N1CCCCCC1 | 3860 nM |

Tested on: not listed separately
Assay: as above
Details: S. cerevisiae MEP2-GFP strain, flow cytometry fluorescence, 3 h; at 33 µM (top of the series)

| SMILES | GFP fluorescence (kMESF), higher = increase |
| --- | --- |
| Cc1ccc(S(=O)(=O)/N=C(\Sc2ccccc2)c2ccccc2)cc1 | 3.88 kMESF (inactive) |
| COC(=O)c1cc(N2C(=O)C3C(C2=O)C2(C)C=CC3(C)O2)ccc1Cl (stereo not drawn) | 4.8 kMESF (inactive) |
| CCOc1ccc(N2C(=O)C(Cl)=C(Nc3ccccc3O)C2=O)cc1 | 4.31 kMESF (inactive) |
| Cn1ncc(S(=O)(=O)Cc2ccccc2)c(Cl)c1=O | 4.57 kMESF (inactive) |
| Cc1ccc(/C=N/Nc2ncc(Cl)cc2Cl)s1 | 4.77 kMESF (inactive) |
| Cc1ccccc1N=Nc1ccc(O)c2ncccc12 | 3.51 kMESF (inactive) |
| Cc1cccc(N=Nc2ccc(O)c3ncccc23)c1 | 3.18 kMESF (inactive) |
| C=CCN1C(=O)/C(=C/c2ccc(-c3ccc(F)cc3)o2)SC1=S | 8.29 kMESF (inactive) |
| O=C(COc1ccccc1)NNC(=S)NC(=O)c1ccccc1 | 2.59 kMESF (inactive) |
| O=C1C=CC(=O)N1N(c1ccccc1)c1ccccc1 | 4.7 kMESF (inactive) |
| Cc1cc(C)nc(S/C=C/C(=O)c2ccccc2)n1 | 3.2 kMESF (inactive) |
| COc1ccc(-c2cc3cc(C(=O)O)ccn3c2C(=O)c2ccccc2)cc1 | 3.23 kMESF (inactive) |
| CCc1nc2ccccc2c(=O)n1NC(=O)c1c(O)c2cccc3c2n(c1=O)CCC3 | 1.72 kMESF (inactive) |
